In patent US20140364454A1, “METAL-CHELATING COMPOUNDS HAVING AT LEAST ONE POLYAMINO CHAIN” (UNIVERSITE DE RENNES I, priority 2011, published 2014):
Read-outs that look alike come from different tables or passages of the source.

Legend:
[1] = Potentiometry: stability constants and pFe3+ of the iron complex; assay type: physicochemical; details: pH 7.4
Method: The complexation affinity of Quilamine with the metal ion in the organism reflects the chelating capacity or chelating power of Quilamine. This affinity can be assessed by measuring the value of pW corresponding to −log of the concentration in free metal ion W, i.e. non-complexated by the Quilamine for a ratio of respective concentrations of Quilamine (10 micromoles per liter) and metal ion (1 micromole per liter) equal to 10, at 25° C. and pH 7.4. The higher the value of pW, the greater the affinity of Quilamine with metal ion. The affinity of Quilamine with iron in its ferric form (Fe(III)) and its ferrous form (Fe(II)) is measured respectively by pFe^3+ and pFe^2+ at physiological pH (pH=7.4), at 25° C.
Potentiometry measurements were made in thermostated titration cells at 25±0.1° C., using a Metrohm 702 SM Titrino titrator connected to a Metrohm 6.0233.100. The ligand solution is prepared in a concentration of ˜1.5×10^−3 moles per liter, the solution of Fe^3+ is made from FeCl3 and titrated by complexation with a standard solution of EDTA (ethylenediaminetetracetic acid). The sample for the measurement contained approximately 0.03 millimoles per liter of ligand in a volume of 30 ml where the ionic strength is maintained at 0.1 mole per liter in using KNO3 as a support electrolyte. During the titrations, Fe^3+ is added to 0.45 or 0.9 equivalents of ligand. Each titration consists of 150-200 equilibrium points with pH varying from 2.0 to 11.5, and is repeated at least twice. The thermodynamic constants are computed with the software […] and the speciation diagram of the species is done by the Hyss program.

[2] = tested on: CHO cells; assay: Cytotoxic effect on CHO cells, LDH release in supernatants; details: CHO
Method: (§1) The in vitro efficacy of different Quilamines was tested on a wild cell line (CHO) of hamster ovarian cells having PTS and a mutant cell line CHO-MG without PTS. The two cell types CHO and CHO-MG were treated, 24 hours after being seeded in 96-well microplates, by concentrations of different Quilamines ranging from 0.1 to 400 micromoles per liter. The cytostatic (anti-proliferative) effects and cytotoxic effects of Quilamine after 72 hours' treatment of the cells were assessed respectively by counting cell nuclei after DNA marking by the Hoechst 33342 fluorescent intercalant dye and by analysis of membrane damage detected by the dosing of the lactate dehydrogenase activity (LHD) in the supernatants.
(§2) A comparison was made of the cytostatic or anti-proliferative action and the cytotoxic action for 72 h of treatment by Quilamine HQ1-44 and 8-hydroxyquinoline and ICL670, on the CHO cell lines in the presence and without the presence of exogenous iron, in the form of Fe(III) citrate in a concentration of 20 micromoles per liter. The results obtained are shown in FIG. 4, FIG. 4A relating to the results on cell viability and FIG. 4B relating to the results on cell toxicity.

[3] = tested on: mutant cell line CHO-MG without PTS; assay: Anti-proliferative effect on CHO-MG cells without PTS, counting of cell nuclei; assay type: cell-based, hamster
Description: The IC50 inhibitor concentration corresponding to the concentration in Quilamines enables the inhibition at 50% of the cell proliferation was deduced from the dose-effect curves of numeration of the nuclei of the living cells on the CHO and CHO-MG cell lines. These dose-effect curves are sometimes bi-phase curves as in the case of Quilamine HQ1-44 which has an anti-proliferative constituent (without concomitant release of LDH in supernatant) in the range of concentrations of 0.4 to 3 micromoles per liter and a second cytotoxic constituent accompanied by membrane toxicity expressed by the release of LDH for concentrations of over […]. The lower the value of IC50, the greater the efficiency of the anti-proliferative effect of the tested chelators.
Furthermore, the ratio of the IC50 inhibitor concentrations found for the CHO-MG and the CHO cell lines (Ratio IC50 (CHO-MG/CHO)) was computed for several Quilamines according to the invention. This ratio makes it possible to estimate the selectivity of recognition of the different chelators by the PTS: the higher the ratio, the more clearly is the chelator recognized by the PTS. When this ratio is close to 1, the tested chelator is not recognized or is little recognized by the PTS.

[4] = tested on: Caco-2 cells; assay: LDH release of Caco-2 cells; assay type: cell-based, human
Method: (§3) The action of Quilamines on the cell viability was analyzed on enterocyte cells of the Caco-2 tumor cell line derived from human colon carcinoma and compared with the action of ICL670 in the presence or absence of exogenous iron, after activation (DFMO) or competitive inhibition by spermidine, of the PTS. The operating conditions used are identical to those used for CHO/CHO-MG and HepG2 cells.
As in the case of the other cell lines in proliferative phase presented here above, the dose-effect curves of the action of the Quilamines on the number of viable cells (number of nuclei) are biphase curves with a cytostatic constituent for concentration values of below 30 micromoles per liter and a cytotoxic constituent with release of LDH for concentration values above 30 micromoles per liter. Only this second cytotoxic constituent is observed when the cells of the Caco-2 cell line are treated after confluence (stopping of the proliferation).

[5] = tested on: wild cell line (CHO) of hamster ovarian cells; assay: Anti-proliferative effect on CHO cells, counting of cell nuclei (Hoechst 33342); assay type: cell-based; details: CHO, 72 h, read-out: IC50 CHO
Method: as §1
The IC50 inhibitor concentration corresponding to the concentration in Quilamines enables the inhibition at 50% of the cell proliferation was deduced from the dose-effect curves of numeration of the nuclei of the living cells on the CHO and CHO-MG cell lines. […] The lower the value of IC50, the greater the efficiency of the anti-proliferative effect of the tested chelators.
as §2

[6] = tested on: Caco-2 cells; assay: Cell viability of proliferating Caco-2 cells (number of nuclei); assay type: cell-based, human
Method: as §3
The results for the measurement of the anti-proliferative effect of Quilamines, and of ICL670 on the proliferating cells (cytostatic constituent) when there is no exogenous iron have been listed in the table 4 below.

[7] = pH 7.4; stated reference values; cited from earlier work

Oc1cccc2cccnc12 [8-hydroxyquinoline, reference compound]
pFe3+ [1]: 20.6 | influence of exogenous iron on the cytotoxic effect ([2]; Fe(III) citrate 20 micromoles per liter): no modification | chelator concentration giving cytotoxic effect with release of LDH ([2]; absence of exogenous iron): greater than or equal to 5 micromoles per liter | IC50 ([3]; CHO-MG, 72 h treatment): 10.5 µM | Ratio IC50 (CHO-MG/CHO) ([3]; selectivity of recognition by the PTS): 2 | % LDH/control 10 μM ([4]; Caco-2 J4, 10 μM): 281% | % LDH/control 100 μM ([4]; Caco-2 J4, 100 μM): 353% | IC50 [5]: 5 µM | Constituent 2 (10-100 μM) % cell ([6]; Caco-2 J4, no exogenous iron): 100% | IC50 ([6]; Homo sapiens, Caco-2, read-out: Constituent 2 (10-100 μM) IC50): 5 µM

O=C(O)CN(CC(=O)O)Cc1cc2c(cc1O)Oc1cc(O)c(CN(CC(=O)O)CC(=O)O)cc1C21OC(=O)c2ccccc21 [Calcein, reference compound]
pFe3+ [7]: 20.3

O=C(O)CC(O)(CC(=O)O)C(=O)O [citrate]
pFe3+ [7]: 19.3
